Data reported in publication PMC3640384, “HPN, a Synthetic Analogue of Bromophenol from Red Alga Rhodomela confervoides: Synthesis and Anti-Diabetic Effects in C57BL/KsJ-db/db Mice” (Marine Drugs, 2013).

Molecular target: T1, protein tyrosine phosphatase 1B (PTP1B) (Homo sapiens, UniProt P18031)
T1 construct: gene PTPN1; Recombinant human GST-PTP1B (hGST-PTP1B)
T1 sequence (P18031 1-435): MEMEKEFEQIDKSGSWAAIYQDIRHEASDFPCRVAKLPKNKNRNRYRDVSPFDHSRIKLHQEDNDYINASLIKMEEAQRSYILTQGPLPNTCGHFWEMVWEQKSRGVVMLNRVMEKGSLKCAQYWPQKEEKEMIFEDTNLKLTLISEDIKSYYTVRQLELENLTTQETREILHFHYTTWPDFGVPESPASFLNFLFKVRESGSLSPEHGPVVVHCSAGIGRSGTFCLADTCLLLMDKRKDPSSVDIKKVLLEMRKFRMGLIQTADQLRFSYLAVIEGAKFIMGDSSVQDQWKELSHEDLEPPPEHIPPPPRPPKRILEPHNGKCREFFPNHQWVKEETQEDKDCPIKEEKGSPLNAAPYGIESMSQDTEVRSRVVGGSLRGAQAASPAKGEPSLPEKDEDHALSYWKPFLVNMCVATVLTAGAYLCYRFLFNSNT
Assay: pNPP hydrolysis assay at […] nm with recombinant GST-PTP1B
Assay type: biochemical

IC50: 630 nM
Compound: CC(C)OCc1cc(O)c(O)c(Br)c1Cc1cc(O)c(O)c(Br)c1Br [HPN, 3,4-dibromo-5-(2-bromo-3,4-dihydroxy-6-(isopropoxymethyl)benzyl)benzene-1,2-diol]
